Experimental data as given in PubChem BioAssay AID272 (DTP/NCI, 2004).
Values joined by “and” are separate entries in the source; they are usually repeats but may differ in a detail not shown here. Equal entries are not always repeated. Records with an inconclusive call do not appear.

System: Lewis lung carcinoma i.m., BDF1 mice, T/C %
Test: NCI In Vivo Anticancer Drug Screen. Data for tumor model Lewis Lung Carcinoma (intramuscular) in B6D2F1 (BDF1) mice
Procedure, shortened: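 Value is the ratio of a treated-group measurement (T) to the matching vehicle-control measurement (C), using either survival or tumour size in mice bearing transplanted tumours.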

With `O=C(CCCl)N1CCN(C(=O)CCCl)c2ccccc21` the T/C (endpoint: mean tumor weight (est.), dose: 150.0 mg/kg/injection, schedule: Q01DX011 (ip), vehicle: saline with Tween-80, higher = larger tumour) was 83 % of control, the T/C (endpoint: mean tumor weight (est.), dose: 300.0 mg/kg/injection, schedule: Q01DX011 (ip), vehicle: saline with Tween-80, higher = larger tumour) was 82 % of control and the T/C (endpoint: median survival time, dose: 150.0 mg/kg/injection, schedule: Q01DX011 (ip), vehicle: saline with Tween-80, higher = longer survival) was 108 % of control. The T/C (endpoint: median survival time, dose: 300.0 mg/kg/injection, schedule: Q01DX011 (ip), vehicle: saline with Tween-80, higher = longer survival) was 93 % of control.
With `C[C@]12CC[C@H](OC3OC(CO)C(O)C(O)C3O)C[C@H]1CC[C@@H]1[C@@H]2CC[C@]2(C)[C@@H](C3=CCOC3=O)CC[C@]12O` (some centres not stated) the T/C (endpoint: median survival time, dose: 0.25 mg/kg/injection, schedule: Q01DX011 (ip), vehicle: saline, higher = longer survival) was 110 % of control.
In the case of `Nc1nc(Cl)nc2c1ncn2C1OC(CO)C(O)C1O` (configuration not stated), the T/C (endpoint: mean tumor weight (est.), dose: 25.0 mg/kg/injection, schedule: Q01DX011 (ip), vehicle: saline with Tween-80, higher = larger tumour) is reported as 72 % of control, the T/C (endpoint: mean tumor weight (est.), dose: 50.0 mg/kg/injection, schedule: Q01DX011 (ip), vehicle: saline with Tween-80, higher = larger tumour) is reported as 72 % of control and the T/C (endpoint: mean tumor weight (est.), dose: 100.0 mg/kg/injection, schedule: Q01DX011 (ip), vehicle: saline with Tween-80, higher = larger tumour) is reported as 36 % of control. For the same compound, the T/C (endpoint: median survival time, dose: 25.0 mg/kg/injection, schedule: Q01DX011 (ip), vehicle: saline with Tween-80, higher = longer survival) was 102 % of control and the T/C (endpoint: median survival time, dose: 50.0 mg/kg/injection, schedule: Q01DX011 (ip), vehicle: saline with Tween-80, higher = longer survival) was 93 % of control.
In the case of `CCCCc1ccc(NC(=O)N(CCCl)N=O)cc1`, the T/C (endpoint: median survival time, dose: 3.0 mg/kg/injection, schedule: Q07DX003 (ip), vehicle: Klucel (hydroxypropylcellulose) (HPC), higher = longer survival) is reported as 112 % of control, the T/C (endpoint: median survival time, dose: 5.0 mg/kg/injection, schedule: Q07DX003 (ip), vehicle: Klucel (hydroxypropylcellulose) (HPC), higher = longer survival) is reported as 106 % of control and the T/C (endpoint: median survival time, dose: 14.0 mg/kg/injection, schedule: Q07DX003 (ip), vehicle: Klucel (hydroxypropylcellulose) (HPC), higher = longer survival) is reported as 110 % of control. The T/C (endpoint: median survival time, dose: 23.0 mg/kg/injection, schedule: Q07DX003 (ip), vehicle: Klucel (hydroxypropylcellulose) (HPC), higher = longer survival) was 87 % of control.
For `COc1cccc2c1C(=O)c1c(O)c3c(c(O)c1C2=O)C[C@@](O)(C(C)=O)C[C@@H]3OC1CC(N)C(O)C(C)O1` (some centres not stated), the T/C (endpoint: median survival time, dose: 0.25 mg/kg/injection, schedule: Q01DX011 (ip), vehicle: water, higher = longer survival) was 93 % of control, the T/C (endpoint: median survival time, dose: 0.5 mg/kg/injection, schedule: Q01DX011 (ip), vehicle: water, higher = longer survival) was 106 % of control and 117 % of control and the T/C (endpoint: median survival time, dose: 1.0 mg/kg/injection, schedule: Q01DX011 (ip), vehicle: water, higher = longer survival) was 107 % of control.
`CSc1ncnc2nc[nH]c12` was tested, and the T/C (endpoint: mean tumor weight (est.), dose: 1.56 mg/kg/injection, schedule: Q01DX011 (ip), vehicle: saline, higher = larger tumour) was 79 % of control, the T/C (endpoint: mean tumor weight (est.), dose: 3.12 mg/kg/injection, schedule: Q01DX011 (ip), vehicle: saline, higher = larger tumour) was 79 % of control and the T/C (endpoint: mean tumor weight (est.), dose: 6.25 mg/kg/injection, schedule: Q01DX011 (ip), vehicle: saline, higher = larger tumour) was 85 % of control. For the same compound, the T/C (endpoint: mean tumor weight (est.), dose: 12.5 mg/kg/injection, schedule: Q01DX011 (ip), vehicle: saline, higher = larger tumour) was 78 % of control, the T/C (endpoint: mean tumor weight (est.), dose: 25.0 mg/kg/injection, schedule: Q01DX011 (ip), vehicle: saline, higher = larger tumour) was 80 % of control and the T/C (endpoint: mean tumor weight (est.), dose: 50.0 mg/kg/injection, schedule: Q01DX011 (ip), vehicle: saline, higher = larger tumour) was 89 % of control. For the same compound, the T/C (endpoint: mean tumor weight (est.), dose: 100.0 mg/kg/injection, schedule: Q01DX011 (ip), vehicle: saline, higher = larger tumour) was 62 % of control, the T/C (endpoint: mean tumor weight, dose: 3.12 mg/kg/injection, schedule: Q01DX011 (ip), vehicle: other, higher = larger tumour) was 96 % of control and the T/C (endpoint: mean tumor weight, dose: 6.25 mg/kg/injection, schedule: Q01DX011 (ip), vehicle: other, higher = larger tumour) was 79 % of control. For the same compound, the T/C (endpoint: mean tumor weight, dose: 12.5 mg/kg/injection, schedule: Q01DX011 (ip), vehicle: other, higher = larger tumour) was 73 % of control, the T/C (endpoint: median survival time, dose: 1.56 mg/kg/injection, schedule: Q01DX011 (ip), vehicle: other, higher = longer survival) was 104 % of control and the T/C (endpoint: median survival time, dose: 1.56 mg/kg/injection, schedule: Q01DX011 (ip), vehicle: saline, higher = longer survival) was 92 % of control. The T/C (endpoint: median survival time, dose: 3.12 mg/kg/injection, schedule: Q01DX011 (ip), vehicle: saline, higher = longer survival) was 92 % of control, the T/C (endpoint: median survival time, dose: 6.25 mg/kg/injection, schedule: Q01DX011 (ip), vehicle: saline, higher = longer survival) was 90 % of control and the T/C (endpoint: median survival time, dose: 12.5 mg/kg/injection, schedule: Q01DX011 (ip), vehicle: other, higher = longer survival) was 93 % of control and 100 % of control. The T/C (endpoint: median survival time, dose: 12.5 mg/kg/injection, schedule: Q01DX011 (ip), vehicle: saline, higher = longer survival) was 88 % of control, the T/C (endpoint: median survival time, dose: 25.0 mg/kg/injection, schedule: Q01DX011 (ip), vehicle: saline, higher = longer survival) was 92 % of control and the T/C (endpoint: median survival time, dose: 50.0 mg/kg/injection, schedule: Q01DX011 (ip), vehicle: other, higher = longer survival) was 109 % of control. For the same compound, the T/C (endpoint: median survival time, dose: 50.0 mg/kg/injection, schedule: Q01DX011 (ip), vehicle: saline, higher = longer survival) was 90 % of control and the T/C (endpoint: median survival time, dose: 100.0 mg/kg/injection, schedule: Q01DX011 (ip), vehicle: saline, higher = longer survival) was 105 % of control.
